Source: PMC7125889 (Bioorganic & Medicinal Chemistry, 2008)
Where a name gives a salt, the structure may show the parent alone.

Tests used:
[1] = system: NMDA receptors; assay: NMDA receptor antagonist functional assay, intracellular calcium; assay type: cell-based; settings: for times more potent than amantadine as NMDA receptor antagonist: vs amantadine
[2] = system: bloodstream form T. brucei (strain 427); assay: Trypanocidal activity against cultured bloodstream form T. brucei; settings: concentrations up to 5 μg mL−1

Row | SMILES | activity against cultured bloodstream form T. brucei [2] | other results
1 | NCC12CC3CC(CC1C3)C2 [Compound 14, [(Tricyclo[3.3.1.0^3,7]non-3-yl)methyl]amine hydrochloride] |  | NMDA receptor antagonist activity (in words) ([1]; cerebellar granule neurons, highest concentration tested): no NMDA receptor antagonist activity
2 | CC12CC3CC1(C)CC3(N)C2 [Compound 21, 3,7-Dimethyl(tricyclo[3.3.0.0^3,7]oct-1-yl)amine·HCl] | no significant activity | times more potent as NMDA receptor antagonist than 3-noradamantylamine, 7 ([1]; vs compound 7): 4 times
3 | CC12CC3CC1(C)CC3(NCc1ccccc1)C2 [Compound 22a, N-Benzyl-3,7-dimethyl(tricyclo[3.3.0.0^3,7]oct-1-yl)amine hydrochloride] | no significant activity | 
4 | CN(Cc1ccccc1)C12CC3(C)CC1CC3(C)C2 [Compound 23, N-Benzyl-N,3,7-trimethyl(tricyclo[3.3.0.0^3,7]oct-1-yl)amine hydrochloride] | no significant activity | 
5 | CC(N)C12CC3(C)CC1CC3(C)C2 (stereo not drawn) [Compound 25, 1-(3,7-Dimethyltricyclo[3.3.0.0^3,7]oct-1-yl)ethylamine hydrochloride] |  | times more potent than amantadine as NMDA receptor antagonist ([1]; NMDA challenge): 2.5 times
6 | CC12CC3CC1(C)CC3(N(Cc1ccccc1)Cc1ccccc1)C2 [Compound 27, N,N-Dibenzyl-3,7-dimethyl(tricyclo[3.3.0.0^3,7]oct-1-yl)amine hydrochloride] | no significant activity | 
7 | CNC12CC3(C)CC1CC3(C)C2 [Compound 28, N-3,7-Trimethyl(tricyclo[3.3.0.0^3,7]oct-1-yl)amine hydrochloride] | no significant activity | 
8 | CN(Cc1ccccc1)CC12CC3(C)CC1CC3(C)C2 [Compound 32, N-Benzyl-N-methyl[(3,7-dimethyltricyclo[3.3.0.0^3,7]oct-1-yl)methyl]amine hydrochloride] | no significant activity | 
9 | CC12CC3CC1(C)CC3(CN1CCCCC1)C2 [Compound 34, N-[(3,7-Dimethyltricyclo[3.3.0.0^3,7]oct-1-yl)methyl]piperidine hydrochloride] | no significant activity | 
10 | CC12CC3CC1(C)CC3(CNC(=N)N)C2 [Compound 35, N-[(3,7-dimethyltricyclo[3.3.0.0^3,7]oct-1-yl)methyl]guanidine hydrochloride] | without antiviral and trypanocidal activities | times more potent than amantadine as NMDA receptor antagonist ([1]; NMDA challenge): 10 times; times more potent than corresponding noradamantyl analog, 18 ([1]; vs compound 18): 3.5 times; times less potent than memantine as NMDA receptor antagonist ([1]; vs memantine, NMDA challenge): 5 times
11 | CNCC12CC3(C)CC1CC3(C)C2 [Compound 36, N-Methyl[(3,7-dimethyltricyclo[3.3.0.0^3,7]oct-1-yl)methyl]amine hydrochloride] | no significant activity | 
